One test concerns MC38 tumor. Briefly: CD31+ micro-blood vessel count in MC38 tumor sections (IHC, angiogenesis). The format is in vivo, mice. The following applies: MC38 tumor harvested after 20 days of tumor inoculation. Here is the method:
FIG. 6 depicts that 5-HTR2B signalling in colon cancer affects cell proliferation and viability: Colon cancer MC38 cells were treated with serotonin (100 μM), 5-HTR2B agonist (BW-723C86; 50 μM), or 5-HTR2B antagonist (SB-215505; 50 μM) for 48 hours, and cell cycle analysis was performed by propidium iodide staining using flow cytometry. MC38 cells were also treated with a graded dose of 5-HTR2B agonist (BW-723C86) or serotonin. MTT assay was performed to measure cell viability. (A) After treatment with 5-HTR2B agonist BW-723C86, serotonin, or 5-HTR2B antagonist SB-215505, the relative cell cycle analysis is shown. (B) Relative cell viability data of MC38 cells following treatment of graded doses of 5-HTR2B agonist BW-723C86 or serotonin are shown. The data shown are representative of one of the three independent experiments. (C) MC38 tumor sections from the control tumor and 5-HTR2B antagonist treated tumor were stained for CD31 and the number of CD31^+ micro-blood vessels/mm^2 of tissue sections was counted and plotted to observe angiogenesis. […]
For fluorescence-based immunohistochemical staining, tissues were embedded in OCT tissue freezing media (Fisher Scientific) and stored at −80° C. […] The images were captured using Olympus FV3000 confocal microscope (Waltham, Massachusetts), and the images were analysed using Cellsens software (Olympus; Waltham, Massachusetts). […]

For a further test, the system named is B16F10 melanoma tumor. The test can be described thus: Adoptive transfer of lymph node cells into NRG mice bearing MC38 and B16F10 tumors: B16F10 flank. The format is in vivo. The following applies: same recipient mice, other flank (FIG. 11B). The protocol:
FIG. 11 depicts the effect of 5-HTR antagonists on the antigen-specific CTL response MC38 tumor model in mice: (A) Representative experimental plan of the adoptive transfer experiment where NRG mice. In brief, NRG mice were inoculated with MC38 on one flank and B16F10 cells on the other. These mice received total lymph node cells from naïve C57BL/6J mice or MC38 tumor-bearing control or RS-127445 treated mice. (B) Tumor volume data from the above-described experiment was measured and plotted (C) Immunocytochemistry data showing expression of H2-Kb-[…]^+ (red) on MC38 cells transfected with pCL-neo-OVA plasmid on the right side and MC38 cells without transfection. DAPI is used as a counterstain. (D-E) C7BL/6J mice were inoculated with an MC38-ova cell line and treated with RS-127445 or left untreated. After 10 days of such treatment, Total lymph node cells were harvested tagged with CFSE, and cultured in the presence of ovalbumin protein (50 μg/ml) for 5 days. After 5 days cells were checked for CFSE expression by flow cytometry to check proliferation. Here is the data (D) showing the CFSE in CD8^+ cells. The statistical data of the total percentage of CFSE^− CD8 T cells corresponding with the percentage of proliferated CD8 T cells were plotted. […]

As to `CC(C)c1cc(-c2ccc(F)c3ccccc23)nc(N)n1` [RS-127445], the “number of CD31+ micro-blood vessels/mm^2 in the tumor area” value in the test on MC38 tumor is listed as “reduced the number of micro-blood vessels/mm^2”. The “B16F10 tumor growth after transfer of antagonist primed total immune cells” value in the test with B16F10 melanoma tumor is “failed to control B16F10 tumor growth”.

The values above are taken from patent US20240408071A1, “NOVEL COMBINATION OF SEROTONIN RECEPTOR (5-HTR2B) ANTAGONIST AND AN IMMUNOMODULATOR AND CHEMOTHERAPEUTIC DRUGS FOR INHIBITION OF CANCER” (NATIONAL CENTRE FOR CELL SCIENCE, priority 2021, published 2024).
